Test results published in US9012458B2, “Antitumor agent using compounds having kinase inhibitory effect in combination” (Eisai R&D Management Co., Ltd., priority 2010, dated 2015).
Where a name gives a salt, the structure may show the parent alone.

System: human gastric cancer cell line (IM95m)
Assay: Combined effect in model animal transplanted with human gastric cancer cell line (IM95m)
Type: in vivo
Details: IM95m s.c. in nude mouse, Compound A 10 mg/kg, Compound B 100 mg/kg, oral once daily, average ± standard deviation
Description: The human gastric cancer cell line IM95m (Health Science Research Resources Bank) was cultured using a DMEM medium (Wako Pure Chemical Industries, Ltd) containing […] glucose, 10% FBS, and 10 μg/mL insulin in a 5% CO2 incubator under the condition of 37° C. When the cells reached a state of approximately 80% confluency, the cells were collected using trypsin-EDTA. To these cells, a Hanks' Balanced Salt Solution containing 50% Matrigel was added to prepare a suspension at 1.0×10^8 cells/mL. The cell suspension thus obtained was subcutaneously transplanted at the lateral side of the body of a nude mouse (CAnN.Cg-Foxn1nu/CrlCrlj, Charles River Laboratories Japan, Inc.) in an amount of 0.1 mL, where each group contained six mice. From 13 days after the transplantation, Compound A (10 mg/kg, once daily, for 21 days) and Compound B (100 mg/kg, once daily, for 21 days) were orally administered continuously, either individually or both in a row.
Setting the initial day of administration at Day 0, the major axis and the minor axis of a tumor developed in each mouse were measured using Digimatic caliper (Mitsutoyo Corporation) thereafter on Day 4, 7, 11, 14, 18 and 21.
The tumor volume and the relative tumor volume were calculated according to the equations below. TV=major axis (mm)×minor axis^2 (mm^2)/2 RTV=TV on the day of measurement/TV on the initial day of administration

Structure (SMILES): COc1cc2nccc(Oc3ccc(NC(=O)NC4CC4)c(Cl)c3)c2cc1C(N)=O [Compound A, 4-(3-chloro-4-(cyclopropylaminocarbonyl)aminophenoxy)-7-methoxy-6-quinolinecarboxamide mesylate]
- RTV (relative tumor volume) Day 4: 1.53 ± 0.12
- RTV (relative tumor volume) Day 7: 2.10 ± 0.18
- RTV (relative tumor volume) Day 11: 2.65 ± 0.37
- RTV (relative tumor volume) Day 14: 2.65 ± 0.49
- RTV (relative tumor volume) Day 18: 2.80 ± 0.47
- RTV (relative tumor volume) Day 21: 3.18 ± 0.57

Structure (SMILES): CN1CCN(C2CCN(C(=O)Nc3cc(Oc4ccc(NC(=O)C5(C(=O)Nc6ccc(F)cc6)CC5)c(F)c4)ccn3)CC2)CC1 [Compound B, N-(2-fluoro-4-{[2-({[4-(4-methylpiperazin-1-yl)piperidin-1-yl]carbonyl}amino)pyridin-4-yl]oxy}phenyl)-N′-(4-fluorophenyl)cyclopropane-1,1-dicarboxamide tartrate]
- RTV (relative tumor volume) Day 4: 1.12 ± 0.08
- RTV (relative tumor volume) Day 7: 1.24 ± 0.15
- RTV (relative tumor volume) Day 11: 1.75 ± 0.17
- RTV (relative tumor volume) Day 14: 1.85 ± 0.16
- RTV (relative tumor volume) Day 18: 3.09 ± 0.48
- RTV (relative tumor volume) Day 21: 4.02 ± 1.05
